Patent publication US20120316234A1, “ANTHRAQUINONE -BASED COMPOUND, THE SYNTHESIS PROCESSES AND THE APPLICATION THEREOF” (NATIONAL DEFENSE MEDICAL CENTER, priority 2011, published 2012)

How the values were obtained:
[1] = tested on: telomerase (total cell lysates of lung cancer cell line H1299); assay: Telomeric repeat amplification protocol (TRAP) telomerase activity analysis; type: biochemical; settings: 100 μM of compound; telomerase source H1299 cell lysate; gel electrophoresis, SYBER Green staining
Procedure: Telomerase elongated product (CX primer: [NT]) was replicated by PCR. […] Three different concentrations of compounds were performed.

melting point	Structure (SMILES)	telomerase inhibition activity (TRAP analysis, FIG. 5) [1]
323 to 324 °C	O=C(CCl)Nc1ccc2c(c1)C(=O)c1ccc(NC(=O)CCl)cc1C2=O	–
155 to 156 °C	COC(=O)CNCCC(=O)Nc1ccc(NC(=O)CCNCC(=O)OC)c2c1C(=O)c1ccccc1C2=O [Compound 10]	have telomerase inhibition activity
150 to 151 °C	COC(=O)CNCCC(=O)Nc1cccc2c1C(=O)c1cccc(NC(=O)CCNCC(=O)OC)c1C2=O [Compound 21]	have telomerase inhibition activity
349 to 350 °C	O=C(CCl)Nc1cccc2c1C(=O)c1cccc(NC(=O)CCl)c1C2=O [Compound 11, 1,5-Bis(chloroacetamido)anthraquinone]	–
